Here are results for three substances from patent publication US20250011829A1, “MEMBRANE FOR MICROBIOLOGICAL ANALYSIS” (Sartorius Stedim Biotech GmbH, priority 2021, published 2025).

One data set has as its system L. anisa WDCM 00106. The class given is cell-based, Legionella anisa.
For data set [1] the following is noted: ILC; for adsorbed amount of surfactant on the membrane: surfactant concentration 0.1 g/L.
Data set [2] can be described thus: Evaluation of wettability by filtration with activated carbon. It is filed as physicochemical. As to conditions: membrane filters impregnated with 0.1 wt % surfactant; white spots indicate inhomogeneous wetting. On the procedure:
The wetting ability of membrane filters obtained in Example 1, which were impregnated with 0.1 wt % of each of Tween 80, Triton X100, Brij 35, SDS, and SDBS, was evaluated after filtration with activated carbon. For this purpose, the pieces with a diameter of 4.7 cm were placed with the application side of the membrane pointing upwards on a frit of a filtration unit before cups are attached thereon. All valves of the filtration bar are closed. 0.2 g of activated carbon is suspended in 1 L of RO water and 100 ml of filtration volume is measured after vigorous stirring and filled into the filtration cups. The pump is then switched on and the valves are opened. After filtration, the black filter pieces are placed on a white sheet of paper and photographed. White spots indicate an inhomogeneous wetting pattern (FIG. 1).

As for sodium dodecyl benzyl sulfonate [SDBS], in the data set with L. anisa WDCM 00106, the “colony forming units of L. anisa” value is reported as “sharp decrease in colony forming units”. For the same substance, the “adsorbed amount of surfactant on the membrane” value in data set [1] is 8.73 μg/cm^2.

Regarding “polyoxyethylene(x)-sorbitan monooleate (x=80) [Tween 80]”, the “wetting pattern after filtration with activated carbon” value in data set [2] is listed as “white wetting spots were visible”. As for “4-(1,1,3,3-tetramethylbutyl)-phenyl-polyethylene glycol [Triton X-100]”, in data set [1], the “adsorbed amount of surfactant on the membrane” value amounted to 51.5 μg/cm^2. The “adsorbed amount relative to SDBS” value in data set [1] (surfactant concentration 1.0 g/L) is reported as “two times higher compared to SDBS”.
